Drawing on article doi:10.1101/2025.06.22.660908v1 (biorxiv, 2025), this text covers IC50 and Kd for 2 molecules.

One data set has as its target hERG (Homo sapiens, UniProt Q12809, species not given). Description: hERG inhibition. The format is cell-based. (The hERG channel carries a current that helps repolarise heart muscle cells.)
The target in a further data set is T1, Recombinant human TREM2 (Homo sapiens, UniProt Q9NZC2).
T1 sequence (Q9NZC2 19-174 limits assumed): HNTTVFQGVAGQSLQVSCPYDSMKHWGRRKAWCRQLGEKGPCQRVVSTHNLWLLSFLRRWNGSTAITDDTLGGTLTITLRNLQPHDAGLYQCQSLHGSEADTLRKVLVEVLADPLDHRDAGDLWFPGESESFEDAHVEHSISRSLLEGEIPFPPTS
The experiment in a line: microscale thermophoresis. The format is binding.

The IC50 is the point on the concentration scale where inhibition reaches its midpoint. The Kd is a measure of binding affinity in units of concentration.

Sequence of hERG (Q12809 whole entry): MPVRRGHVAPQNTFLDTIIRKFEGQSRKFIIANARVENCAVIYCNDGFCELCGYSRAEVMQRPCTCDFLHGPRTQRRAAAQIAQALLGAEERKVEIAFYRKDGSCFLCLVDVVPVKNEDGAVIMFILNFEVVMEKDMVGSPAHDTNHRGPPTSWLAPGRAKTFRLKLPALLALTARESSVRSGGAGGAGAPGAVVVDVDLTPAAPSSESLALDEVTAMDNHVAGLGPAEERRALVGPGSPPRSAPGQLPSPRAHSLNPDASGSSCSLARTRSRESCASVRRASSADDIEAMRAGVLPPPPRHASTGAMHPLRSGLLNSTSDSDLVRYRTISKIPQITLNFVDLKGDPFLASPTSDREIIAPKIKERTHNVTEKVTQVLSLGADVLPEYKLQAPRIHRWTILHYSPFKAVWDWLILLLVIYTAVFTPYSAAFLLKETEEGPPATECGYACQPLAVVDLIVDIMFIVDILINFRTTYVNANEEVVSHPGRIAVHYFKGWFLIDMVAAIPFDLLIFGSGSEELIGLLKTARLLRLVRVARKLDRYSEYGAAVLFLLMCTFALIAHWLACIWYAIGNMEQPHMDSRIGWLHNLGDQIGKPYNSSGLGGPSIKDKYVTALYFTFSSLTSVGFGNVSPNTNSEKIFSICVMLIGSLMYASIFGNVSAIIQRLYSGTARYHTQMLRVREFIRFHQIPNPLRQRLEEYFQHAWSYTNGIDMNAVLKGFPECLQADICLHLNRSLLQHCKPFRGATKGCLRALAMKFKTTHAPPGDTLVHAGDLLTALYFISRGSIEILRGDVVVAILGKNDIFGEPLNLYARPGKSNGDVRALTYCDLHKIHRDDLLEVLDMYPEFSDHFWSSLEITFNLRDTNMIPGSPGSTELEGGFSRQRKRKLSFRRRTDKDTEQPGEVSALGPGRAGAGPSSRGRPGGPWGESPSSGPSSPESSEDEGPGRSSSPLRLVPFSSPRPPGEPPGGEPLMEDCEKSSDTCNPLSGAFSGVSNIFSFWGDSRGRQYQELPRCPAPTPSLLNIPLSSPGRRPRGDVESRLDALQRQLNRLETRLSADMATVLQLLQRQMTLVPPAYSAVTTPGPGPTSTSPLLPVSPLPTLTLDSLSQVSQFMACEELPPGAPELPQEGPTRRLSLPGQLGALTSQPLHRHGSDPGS

For `Cc1nc2cc([C@H]3CCO[C@@H](c4cnn(C)c4)C3)nc(-c3ccc(Cl)cc3F)c2nc1C` [VG-3927], the IC50 at hERG was more than 100 µM. Regarding `Cc1nc2cc(C3=CC(c4cnn(C)c4)OCC3)nc(-c3ccc(Cl)cc3F)c2nc1C` (stereo not drawn) [C1], at Recombinant human TREM2, the Kd stood at 71.4 ± 4.06 µM. At hERG, this molecule yielded an IC50 of more than 100 µM.
